Experimental findings from a melting point compilation (Tetko et al.; mined from patent text by program, amines drawn as free bases though some values may be those of a salt) are described below.

The structures appear in SMILES notation. A value given as a limit tells only on which side of the number the result lay.

The term melting point denotes the temperature of the solid-liquid transition. `COc1ccc(-c2sc3c(c2CN(C)Cc2ccccc2)c(=O)c(C=O)cn3Cc2ccccc2OC)cc1` returned a melting point of 181 to 185 °C.

`CCCCN(CCC12CC3CC(CC(C3)C1)C2)C(=O)NCCCc1ccncc1` showed a melting point of 110 to 118 °C.

For the molecule `COc1ccccc1-c1ccc2c(c1)CC[C@H]1N(C)C(=O)CC[C@]21C`, the melting point fell in the range of 152 to 156 °C.

`O=C(Nc1nnc(COc2ccccc2Cl)s1)c1ccc2c(c1)CCN(C(=O)CO)C2` showed a melting point of 133 to 135 °C.

With `CSC(=NC(C)=O)Nc1c(Cl)cccc1Cl`, the melting point lay within 137 to 140 °C.

As for `C#Cc1ccc2c(c1)C(c1ccccn1)=NCc1c(C(=O)NC)ncn1-2`, the melting point is 215 to 216 °C.

`c1ccc(Sc2cc3cc4cc5ccccc5cc4cc3cc2Sc2ccccc2)cc1`: the melting point was more than 260 °C.

The molecule `COC(=O)c1ccccc1C(=O)c1ccc(CBr)cc1` registered a melting point of 88.2 to 91.5 °C.

Molecule `CC(=O)c1c(-c2ccc(Cl)cc2)c(-c2ccc(Cl)cc2)nn(CCN(C)C)c1=O` registered a melting point of 149 to 150 °C.

Regarding `COCc1ncccc1CN(CCn1ccc2oc(C)cc2c1=O)Cc1ccc2c(c1)NC(=O)C(C)(C)C(=O)N2CC1CC1`, the melting point was in the range of 189 to 191 °C.

The molecule `O=C1c2ccccc2C(=O)N1CCCOc1cccc(CO)c1` displayed a melting point of 78 to 80 °C.

Consider `Cc1ccccc1C(=NC#N)NC(NC(=O)Cc1ccc(Cl)cc1)C(C)(C)C` (stereo not drawn), for which the melting point was in the range of 109 to 110 °C.

The molecule `COc1ccc2c(c1O)N=CC1CCCN1C2=O` (stereo not drawn) had a melting point of 150 to 153 °C.

Consider `COc1ccc(-c2ccc(C(=O)O)cc2)cc1-c1ccc2c(c1)C(C)(C)CCC2(C)C`, for which the melting point was in the range of 251 to 255 °C.

`COC(=O)c1[nH]c2c(C)ccc(C)c2c1C=NOCc1ccccc1` displayed a melting point of 104 to 105 °C.

For `COc1cc(NC(SC)=C(C#N)S(=O)(=O)c2ccc(Cl)cc2)cc(OC)c1`, the melting point was 120 to 123 °C.

Regarding `CN1C(=O)c2cccnc2Nc2cc([N+](=O)[O-])ccc21`, the melting point is 275 to 278 °C.

Consider `CCCCC1OC(=O)c2cc(NC(C)=O)ccc21` (stereo not drawn), for which the melting point lay in the range of 138 to 139 °C.

On to `CCOC(=O)c1c(N2CCN(C(=O)c3cccs3)CC2)c2cccnc2n(CC(=O)c2ccccc2)c1=O`, for which the melting point came to 115 °C.

As for `CCCCCCCCCCCCc1cc(CC(=O)Nc2c(OC)cc(OC)cc2OC)on1`, the melting point lay in the range of 107 to 109 °C.

With `CCOC(=O)OC1C(=O)N(CCN(C)C)c2ccc3ccccc3c2SC1c1ccc(OC)cc1` (stereo not drawn), the melting point fell in the range of 168 to 169 °C.

In the case of `CC1CCCCC1Nc1c(C(=O)O)cnn2cccc12` (stereo not drawn), the melting point came out at 195 °C.

Molecule `CNc1cc(NC)cc(C(O)CS(C)(=O)=O)c1` (stereo not drawn) displayed a melting point of 106 °C.

As to `CCOc1noc(C(=O)OCc2ccccc2)c1CC(NC(=O)OC(C)(C)C)C(=O)OCc1ccccc1` (racemic), the melting point fell in the range of 142 to 144 °C.

In turn, `CCOC(=O)C(F)Sc1ccc(O)cc1` (stereo not drawn) registered a melting point of 72 °C.

In turn, `COc1cc(COc2cccc(S(=O)(=O)c3ccc(C)nc3Nc3c(C)cc(C)cc3C)c2)cc(OC)c1` registered a melting point of 120 to 121 °C.

The molecule `O=c1[nH][nH]c(=O)c2nc3ccccc3cc12` showed a melting point of 345 to 349 °C.

In the case of `COc1cccc(CC(=O)c2c(O)c3cccnc3n(-c3ccccc3)c2=O)c1`, the melting point fell in the range of 173 to 174 °C.

Regarding `COc1ccc(F)c(C)c1NC(=O)OC(C)(C)C`, the melting point is 81 to 82 °C.

With `O=C(O)c1ccc2c([N+](=O)[O-])cc3c(c2c1)C(CCl)CN3` (stereo not drawn), the melting point lay within 205 to 208 °C.

As for `COc1ccc(C(=O)N2CC[C@H](O)C2=O)cc1OCc1ccccc1`, the melting point fell in the range of 166 to 167 °C.

As to `CCc1cc(-c2nnc3c4ccccc4c(OCc4ncn(C)n4)nn23)no1`, the melting point was in the range of 236 to 238 °C.

Turning to `CCSc1nc2c(C(=S)OC)sc(C)c2[nH]1`, the melting point lay in the range of 170 to 172 °C.

Regarding `CCCCCCCOc1ccc(COc2ccc(-c3ccc(OC(C)CCCCCC)cc3)cc2)cc1` (stereo not drawn), the melting point was 98.1 °C.

As for `CCOC(=O)C1=CNC2=C(C(=O)Nc3ccccc3)CCN2C1=O`, the melting point fell in the range of 240 to 241 °C.

`Clc1cnc(Br)c(Cl)c1` came in with a melting point of 37 to 38 °C.

Regarding `COCCNc1cc(Cl)nc(-c2ccc(C)cc2)n1`, the melting point fell in the range of 141 to 144 °C.

As for `CC(NC(=O)C=Cc1ccc(Cl)cc1)c1ccc(NS(C)(=O)=O)c(F)c1` (stereo not drawn), the melting point was 170 to 172 °C.

With `Cc1cccc2c(=O)c(CCCl)n[nH]c12`, the melting point was in the range of 222 to 225 °C.

With `COC(=O)c1ccc(-c2noc(C(F)(F)F)n2)s1`, the melting point fell in the range of 126 to 127 °C.

`CCOC(=O)CCCCc1cn(C(c2ccccc2)(c2ccccc2)c2ccccc2)cn1`: the melting point was in the range of 84 to 86 °C.

Consider `COCC1=C(C(=O)NCCCN2CCC(c3ccc(F)cc3)CC2)C(c2ccc(F)c(F)c2)NC(=O)N1` (single isomer, unassigned; (-)), for which the melting point is 149 to 150 °C.

In the case of `COc1cccc(-c2cnc(-c3ccoc3)s2)c1`, the melting point lay within 61 to 62 °C.

As to `Cc1csc(C)c1S(=O)(=O)Cl`, the melting point came to 79 °C.

Molecule `CC(=O)Nc1c(C(=O)c2cccnc2)[nH]c2cc(Cl)ccc12` had a melting point of 213 to 214 °C.

Take `Cc1nc(-c2nccs2)c2nc(-c3ccccc3)cc-2[nH]1`: the melting point was in the range of 248 to 250 °C.

`O=C(O)c1cn(C2CC2)c2c(F)c(N3CCC(n4ncnn4)C3)c(F)cc2c1=O` (stereo not drawn) registered a melting point of 192 to 199 °C.

`CSc1cn(C)c2cc(C)sc2c1=O`: the melting point fell in the range of 139 to 142 °C.

Molecule `O=C(O)c1cc(Br)cc(C(=O)C=Cc2ccccc2)c1O` came in with a melting point of more than 250 °C.

In turn, `CNc1nc(Nc2ccc(Cl)c(Cl)c2)ncc1N1CCNC1=O` came in with a melting point of 271 °C.

In the case of `Cc1ccccc1C(=O)Nc1ccc(C(=O)N2c3ccccc3CNc3ccccc32)cc1`, the melting point lay in the range of 68 to 71 °C.

`N=C(N)c1ccc(N2CCN(c3ccc(OCC(=O)O)cc3)CC2)cc1`: the melting point was more than 340 °C.

In the case of `Cc1cc2cc(OCC(=O)O)c(Cl)c(Cl)c2s1`, the melting point is 215 to 216 °C.

As for `CCCc1c(OCCCCCOc2ccccc2CCC(=O)O)ccc2c1OCC2=O`, the melting point was 101 to 102 °C.

In turn, `O=S(=O)(c1ccc(Br)cc1)N1CCC2(C=Cc3ccccc32)CC1` registered a melting point of 177 to 178 °C.

Molecule `COc1cc(Nc2nccc(-c3ccc(N)cc3)n2)cc(OC)c1OC` had a melting point of 195 °C.

Turning to `CCC(=O)COc1cc(N)c(Cl)cc1C(=O)NCCN(CC)CC`, the melting point is 103 to 104 °C.

In turn, `CCCc1c(OCCCOc2c(C(C)=O)ccc(OCCCCCC(=O)O)c2CCC)ccc(C(C)=O)c1O` had a melting point of 105 to 108 °C.

Molecule `CC(CN1CC(=O)N(CN2CCN(C)CC2)C(=O)C1)N1CC(=O)N(CN2CCN(C)CC2)C(=O)C1` (stereo not drawn) displayed a melting point of 93 to 96 °C.

In turn, `O=C(c1ccco1)N1N=CCC1c1ccccc1` (stereo not drawn) displayed a melting point of 136 to 137 °C.

As to `CC(=O)Sc1ccc(C#Cc2ccc(C=O)cc2)cc1`, the melting point fell in the range of 128 to 129 °C.

For the molecule `CN1C(=O)C2C3C=CC(C3)C2(c2ccc([N+](=O)[O-])cc2)C1=O` (stereo not drawn), the melting point was in the range of 163 to 167 °C.

With `CC(C)(C)Nc1cc(N2CCCNCC2)nc(NC(C)(C)C)n1`, the melting point was in the range of 127 to 132 °C.
